“And” between values parts separate entries of the source, which are not always exact repeats. Equal entries are not always repeated.
Experiments:
MOLM-14 cells = experiment: AlamarBlue cell viability assay, MOLM-14; conditions: for IC50: Homo sapiens, MOLM-14, 72 h, read-out: Cell viability IC50, MOLM-14 cells, 72 h, Alamar Blue; for Cell viability, MOML-14: Supplementary Figure 7, replicates
Experimental: The IC50 was calculated using GraphPad Prism software with a four-parameter dose-response curve fit.

BTK = BTK (Homo sapiens, UniProt Q06187); experiment: In vitro BTK kinase assay (PhosphoSens); format: biochemical; design: purchased SignalChem B10-10H-10; conditions: for IC50: AssayQuant BTK assay kit, 2.5 nM BTK, 1 mM ATP, duplicates, read-out: BTK inhibition IC50; for activity at 2.56 pM / activity at 12.8 pM / activity at 64 pM / activity at 0.00032 µM / activity at 0.0016 µM / activity at 0.008 µM / activity at 0.04 µM / activity at 0.2 µM / activity at 1 µM: Supplementary Figure 5, replicates, read-out: Inhibition(%); for activity at 2.56 pM: drug concentration 2.56 pM; for activity at 12.8 pM: drug concentration 12.8 pM; for activity at 64 pM: drug concentration 64 pM; for activity at 0.00032 µM: drug concentration 320 pM; for activity at 0.0016 µM: drug concentration 1600 pM; for activity at 0.008 µM: drug concentration 8000 pM; for activity at 0.04 µM: drug concentration 40000 pM; for activity at 0.2 µM: drug concentration 200000 pM; for activity at 1 µM: drug concentration 1000000 pM
Sequence of BTK (Q06187 whole entry): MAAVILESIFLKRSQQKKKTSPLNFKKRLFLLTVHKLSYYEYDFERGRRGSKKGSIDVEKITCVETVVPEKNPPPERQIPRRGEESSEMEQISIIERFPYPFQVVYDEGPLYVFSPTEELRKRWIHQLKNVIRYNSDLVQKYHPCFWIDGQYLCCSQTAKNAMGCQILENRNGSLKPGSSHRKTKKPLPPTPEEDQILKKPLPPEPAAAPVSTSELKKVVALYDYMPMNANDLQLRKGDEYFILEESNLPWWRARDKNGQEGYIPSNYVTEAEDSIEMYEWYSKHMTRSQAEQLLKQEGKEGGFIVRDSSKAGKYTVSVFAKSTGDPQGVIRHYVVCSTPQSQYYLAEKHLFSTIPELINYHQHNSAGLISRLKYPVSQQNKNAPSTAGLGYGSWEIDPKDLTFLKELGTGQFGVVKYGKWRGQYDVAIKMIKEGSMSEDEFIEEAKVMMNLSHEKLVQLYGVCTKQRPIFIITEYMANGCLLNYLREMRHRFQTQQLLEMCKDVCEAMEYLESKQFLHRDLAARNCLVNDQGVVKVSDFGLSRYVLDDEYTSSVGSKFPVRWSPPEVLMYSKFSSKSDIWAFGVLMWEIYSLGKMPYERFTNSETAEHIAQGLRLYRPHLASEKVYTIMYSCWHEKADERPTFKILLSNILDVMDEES

Jeko-1 = experiment: IC50 in MCL cell lines (Supplementary Table 2), Jeko-1; conditions: for IC50: Jeko-1, triplicates; for Cell Viability (%): Jeko-1 cells, replicate wells

SMILES | IC50 (MOLM-14 cells) [nM] | Cell viability, MOML-14 (MOLM-14 cells; drug concentration 1.00E-05 M) | Cell viability, MOML-14 (MOLM-14 cells; drug concentration 1.60E-08 M) | Cell viability, MOML-14 (MOLM-14 cells; drug concentration 2.00E-06 M) | Cell viability, MOML-14 (MOLM-14 cells; drug concentration 3.20E-09 M) | Cell viability, MOML-14 (MOLM-14 cells; drug concentration 4.00E-07 M) | Cell viability, MOML-14 (MOLM-14 cells; drug concentration 6.40E-10 M) | Cell viability, MOML-14 (MOLM-14 cells; drug concentration 8.00E-08 M) | IC50 (BTK) [nM] | activity at 2.56 pM (BTK) [%] | activity at 12.8 pM (BTK) [%] | activity at 64 pM (BTK) [%] | activity at 0.00032 µM (BTK) [%] | activity at 0.0016 µM (BTK) [%] | activity at 0.008 µM (BTK) [%] | activity at 0.04 µM (BTK) [%] | activity at 0.2 µM (BTK) [%] | activity at 1 µM (BTK) [%] | IC50 (Jeko-1) [nM] | Cell Viability (%) (Jeko-1; 1.25E-06 M) | also measured
CN1C(=O)CCC(N2C(=O)c3cccc(NCC(=O)NCCCN(C)C(C)(C)C=C(C#N)C(=O)N4CCCC(n5nc(-c6ccc(Oc7ccccc7)cc6)c6c(N)ncnc65)C4)c3C2=O)C1=O (centres unmarked) [RC-1-Me] | 210 | 5.925 and 2.684 and 5.158 and 0.5402 and 1.464 | 108.445 and 78.2274 and 85.8427 and 61.7071 and 70.0718 | 12.3031 and 8.922 and 10.0028 and 5.594 and 8.609 | 105.5 and 93.5975 and 67.3881 and 77.0075 and 77.9834 | 48.707 and 38.2511 and 45.3611 and 24.9024 and 42.2243 | 105.5 and 122.177 and 88.0908 and 73.4874 and 67.8761 | 81.0853 and 58.6749 and 68.6428 and 51.3383 and 65.994 | 6.8 | 108 | 101 | 109 | 106 | 88.3 | 48.8 | 10.5 | 3.98 | 1.27 | 600 | 36.268% and 32.7063% and 31.5519% | Cell Viability (%) (Jeko-1; 1.56E-07 M): 68.2022% and 62.2702% and 73.2784%; Cell Viability (%) (Jeko-1; 2.50E-06 M): 5.54% and 14.7844% and 6.721%; Cell Viability (%) (Jeko-1; 3.13E-07 M): 71.0782% and 71.3298% and 71.3347%; Cell Viability (%) (Jeko-1; 5.00E-06 M): 4.5335% and 3.7442% and 3.927%; Cell Viability (%) (Jeko-1; 6.25E-07 M): 49.1754% and 57.0313% and 33.3624%; Cell Viability (%) (Jeko-1; 7.81E-08 M): 77.062% and 93.1685% and 69.7463%
CC(C)(C)C=C(C#N)C(=O)N1CCCC(n2nc(-c3ccc(Oc4ccccc4)cc3)c3c(N)ncnc32)C1 (centres unmarked) [RC-Ctrl] | 500 | 7.067 and 3.271 and 5.661 and 1.305 and 2.339 | 100.163 and 86.7229 and 69.3512 and 65.5718 and 65.0973 | 19.6597 and 13.6262 and 19.5071 and 12.6093 and 12.5585 | 99.2136 and 96.6714 and 77.7744 and 79.5709 and 66.0125 | 73.5374 and 63.2161 and 57.9961 and 48.3526 and 44.7427 | 106.654 and 105.722 and 82.8418 and 81.5368 and 73.0798 | 93.8411 and 82.0283 and 73.1815 and 65.3176 and 60.962 | 2.2 | 108 | 105 | 109 | 96.8 | 64.1 | 25.5 | 4.68 | 1.89 | 2.91 | 600 | 31.3102% and 33.1774% and 45.3843% | reduction of BTK inhibition activity compared with IRC-Ctrl (BTK; ratio of IC50 values): 7 folds; Cell Viability (%) (Jeko-1; 1.56E-07 M): 69.2456% and 61.0172% and 73.2882%; Cell Viability (%) (Jeko-1; 2.50E-06 M): 11.5927% and 9.314% and 11.5138%; Cell Viability (%) (Jeko-1; 3.13E-07 M): 58.8318% and 42.4713% and 68.6832%; Cell Viability (%) (Jeko-1; 5.00E-06 M): 5.458% and 5.865% and 4.45%; Cell Viability (%) (Jeko-1; 6.25E-07 M): 52.1031% and 47.1602% and 45.3596%; Cell Viability (%) (Jeko-1; 7.81E-08 M): 53.9062% and 67.1539% and 84.5751%

Source: paper PMC7450057, “Enhancing intracellular accumulation and target engagement of PROTACs with reversible covalent chemistry” (Nature Communications, 2020)
